We go through three compounds from patent publication US20230141603A1, “BENZODIAZEPINE DERIVATIVES AS GABA A GAMMA1 PAM” (Hoffmann-La Roche Inc., priority 2021, published 2023).

The structures appear in SMILES notation.

The target in the test is T1, h-GABAA α2β2γ1 (Homo sapiens, UniProt P47869+Q8N1C3).
T1 sequence (P47869 29-451): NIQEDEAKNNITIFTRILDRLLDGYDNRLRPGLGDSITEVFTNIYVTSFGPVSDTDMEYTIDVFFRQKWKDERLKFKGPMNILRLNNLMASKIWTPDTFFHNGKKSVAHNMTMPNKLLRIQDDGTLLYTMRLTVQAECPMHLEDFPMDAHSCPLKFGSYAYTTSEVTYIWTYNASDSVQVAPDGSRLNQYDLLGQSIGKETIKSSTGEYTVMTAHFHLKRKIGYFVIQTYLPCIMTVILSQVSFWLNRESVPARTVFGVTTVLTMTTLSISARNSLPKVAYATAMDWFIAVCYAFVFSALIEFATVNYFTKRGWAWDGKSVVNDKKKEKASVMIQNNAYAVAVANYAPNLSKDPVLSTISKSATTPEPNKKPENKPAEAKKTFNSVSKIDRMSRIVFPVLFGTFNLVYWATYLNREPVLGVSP
T1 sequence (P47870 25-512 partner limits assumed): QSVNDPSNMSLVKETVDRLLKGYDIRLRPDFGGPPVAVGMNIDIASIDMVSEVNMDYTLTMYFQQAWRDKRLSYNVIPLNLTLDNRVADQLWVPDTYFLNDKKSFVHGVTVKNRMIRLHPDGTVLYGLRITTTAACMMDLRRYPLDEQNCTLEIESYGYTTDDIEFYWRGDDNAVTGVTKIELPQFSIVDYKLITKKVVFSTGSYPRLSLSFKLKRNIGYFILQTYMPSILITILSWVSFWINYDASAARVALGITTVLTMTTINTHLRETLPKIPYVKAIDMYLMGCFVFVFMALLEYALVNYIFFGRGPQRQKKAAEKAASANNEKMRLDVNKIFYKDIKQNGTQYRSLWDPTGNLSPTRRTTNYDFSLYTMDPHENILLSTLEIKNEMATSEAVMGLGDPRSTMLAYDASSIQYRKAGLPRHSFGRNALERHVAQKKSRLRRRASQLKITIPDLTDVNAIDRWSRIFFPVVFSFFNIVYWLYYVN
T1 sequence (Q8N1C3 36-465): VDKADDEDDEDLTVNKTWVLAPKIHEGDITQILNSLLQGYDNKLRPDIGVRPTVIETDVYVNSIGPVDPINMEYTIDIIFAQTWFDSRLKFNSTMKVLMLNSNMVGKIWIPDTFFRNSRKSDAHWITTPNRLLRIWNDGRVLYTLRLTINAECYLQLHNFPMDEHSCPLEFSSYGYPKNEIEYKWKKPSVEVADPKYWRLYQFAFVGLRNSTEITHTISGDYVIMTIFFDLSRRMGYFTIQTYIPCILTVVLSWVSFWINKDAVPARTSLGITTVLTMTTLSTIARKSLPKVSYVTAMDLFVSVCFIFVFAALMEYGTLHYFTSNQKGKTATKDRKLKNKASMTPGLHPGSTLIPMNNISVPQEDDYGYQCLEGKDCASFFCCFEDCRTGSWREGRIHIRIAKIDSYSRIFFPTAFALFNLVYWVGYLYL
Description: Radioligand binding assay, [3H]RO7239181 competition, HEK293F membranes. Details: signal peptide of human GABAA α5 subunit (Met1 to Ser31), replacing the α2 signal peptide (N); expressed in transfected cells; host or cells: HEK293F cells (ThermoFisher R79007), membranes.
On to `CO[C@H]1C[C@H](c2nnc3n2-c2ccc(Cl)c(Cl)c2C(c2c(F)cccc2F)=NC3)C1` [Example 91, trans-7,8-dichloro-6-(2,6-difluorophenyl)-1-(3-methoxycyclobutyl)-4H-[1,2,4]triazolo[4,3-a][1,4]benzodiazepine], for which the Ki was determined as 36.3 nM.
The value for `Fc1cccc(F)c1C1=NCc2nnc(-c3cccnn3)n2-c2ccc(Br)c(Cl)c21` [Example 104, 8-bromo-7-chloro-6-(2,6-difluorophenyl)-1-pyridazin-3-yl-4H-[1,2,4]triazolo[4,3-a][1,4]benzodiazepine] was 2.3 nM; that for `Cc1ncc2n1-c1ccc(Cl)cc1C(c1ccccc1F)=NC2` [Midazolam, reference compound] was 738 nM.
